Experiments:
Type in all cases: cell-based
[1] = tested on: Proteus mirabilis; assay: MIC against Gram-negative bacteria: Proteus mirabilis; conditions: 5×10^5 CFU/mL
Procedure, shortened: (§1)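 Growth inhibition by human EGF domain proteins was scored in LB liquid culture seeded at 5×10^5 CFU/mL. Protein was applied as a two-fold dilution series in triplicate, with shaking incubation at 37° C; MIC is the lowest concentration giving no growth.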

[2] = tested on: Moraxella catarrhalis; assay: MIC against Gram-negative bacteria: Moraxella catarrhalis; conditions: 5×10^5 CFU/mL
Procedure, shortened: as §1

[3] = tested on: E. coli BL21; assay: MIC against Gram-negative bacteria: E. coli BL21; conditions: 5×10^5 CFU/mL
Procedure, shortened: as §1

[4] = tested on: Pseudomonas aeruginosa; assay: MIC against Gram-negative bacteria: Pseudomonas aeruginosa; conditions: 5×10^5 CFU/mL
Procedure, shortened: as §1

[5] = tested on: Citrobacter diversus; assay: MIC against Gram-negative bacteria: Citrobacter diversus; conditions: 5×10^5 CFU/mL
Procedure, shortened: as §1

[6] = tested on: Klebsiella pneumonia; assay: MIC against Gram-negative bacteria: Klebsiella pneumonia; conditions: 5×10^5 CFU/mL
Procedure, shortened: as §1

[7] = tested on: Proteus vulgaris; assay: MIC against Gram-negative bacteria: Proteus vulgaris; conditions: 5×10^5 CFU/mL
Procedure, shortened: as §1

[8] = tested on: Aeromonas hydrophila; assay: MIC against Gram-negative bacteria: Aeromonas hydrophila; conditions: 5×10^5 CFU/mL
Procedure, shortened: as §1

[9] = tested on: Enterobacter cloacae; assay: MIC against Gram-negative bacteria: Enterobacter cloacae; conditions: 5×10^5 CFU/mL
Procedure, shortened: as §1

[10] = tested on: Serratia marcescens; assay: MIC against Gram-negative bacteria: Serratia marcescens; conditions: 5×10^5 CFU/mL
Procedure, shortened: as §1

[11] = tested on: E. coli DH5α; assay: Antibacterial activity: MIC and growth curve against E. coli DH5α in 96-well plate; conditions: minimal inhibitory concentration against E. coli DH5α; 96-well plate, 5×10^5 CFU/mL, 37° C., judged after 8 h
Procedure, shortened: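 MIC taken as lowest protein level with no bacterial growth, tracked by A600 every 30 min during 37 °C, 175 rpm culture. Two-fold protein series 50-12.5 μg/mL final, triplicate wells, against 5×10^5 CFU/mL of LB-washed mid-log cells.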

[12] = P. mirabilis, 10 h cultivation at 37° C.
[13] = M. catarrhalis, 10 h cultivation at 37° C.
[14] = P. aeruginosa, 10 h cultivation at 37° C.
[15] = C. diversus, 10 h cultivation at 37° C.
[16] = K. pneumonia, 10 h cultivation at 37° C.
[17] = P. vulgaris, 10 h cultivation at 37° C.
[18] = A. hydrophila, 10 h cultivation at 37° C.
[19] = E. cloacae, 10 h cultivation at 37° C.
[20] = S. marcescens, 10 h cultivation at 37° C.
[21] = Proteus mirabilis, 10 h cultivation at 37° C.
[22] = Moraxella catarrhalis, 10 h cultivation at 37° C.
[23] = Pseudomonas aeruginosa, 10 h cultivation at 37° C.
[24] = Citrobacter diversus, 10 h cultivation at 37° C.
[25] = Klebsiella pneumonia, 10 h cultivation at 37° C.
[26] = Proteus vulgaris, 10 h cultivation at 37° C.
[27] = Aeromonas hydrophila, 10 h cultivation at 37° C.
[28] = Enterobacter cloacae, 10 h cultivation at 37° C.
[29] = Serratia marcescens, 10 h cultivation at 37° C.

Row | Substance | MIC [11] | MIC (μg/mL) P. mirabilis [1, 12] | MIC (μg/mL) M. catarrhalis [2, 13] | MIC (μg/mL) E. coli BL21 ([3]; 10 h cultivation at 37° C.) | MIC (μg/mL) P. aeruginosa [4, 14] | MIC (μg/mL) C. diversus [5, 15] | MIC (μg/mL) K. pneumonia [6, 16] | MIC (μg/mL) P. vulgaris [7, 17] | MIC (μg/mL) A. hydrophila [8, 18] | MIC (μg/mL) E. cloacae [9, 19] | MIC (μg/mL) S. marcescens [10, 20] | MIC against P. mirabilis [1, 21] | MIC against M. catarrhalis [2, 22] | MIC against E. coli BL21 ([3]; 10 h cultivation at 37° C.) | MIC against P. aeruginosa [4, 23] | MIC against C. diversus [5, 24] | MIC against K. pneumonia [6, 25] | MIC against P. vulgaris [7, 26] | MIC against A. hydrophila [8, 27] | MIC against E. cloacae [9, 28] | also measured
1 | PRT676 (DINECAMPGVCRHGDCLNNPGSYRCVCPPGHSLGPSRTQCI; listed as Homo sapiens) | 25 µg/mL |  |  |  |  |  |  |  |  |  |  |  |  |  |  |  |  |  |  |  | MIC P. mirabilis ([1]; 96-well plate, 37° C., 10 h): 12.5 µg/mL; MIC M. catarrhalis ([2]; 96-well plate, 37° C., 10 h): 25 µg/mL; MIC E. coli BL21 ([3]; 96-well plate, 37° C., 10 h): 50 µg/mL; MIC P. aeruginosa ([4]; 96-well plate, 37° C., 10 h): 12.5 µg/mL; MIC C. diversus ([5]; 96-well plate, 37° C., 10 h): 50 µg/mL; MIC K. pneumonia ([6]; 96-well plate, 37° C., 10 h): 50 µg/mL; MIC P. vulgaris ([7]; 96-well plate, 37° C., 10 h): 50 µg/mL; MIC A. hydrophila ([8]; 96-well plate, 37° C., 10 h): 12.5 µg/mL; MIC E. cloacae ([9]; 96-well plate, 37° C., 10 h): 25 µg/mL; MIC S. marcescens ([10]; 96-well plate, 37° C., 10 h): 12.5 µg/mL
2 | PRT102 (DRCLPNYCEHGGECSQSWSTFHCNCTNTGYRGATC; listed as Homo sapiens) | 12.5 µg/mL |  |  |  |  |  |  |  |  |  |  |  |  |  |  |  |  |  |  |  | MIC (μg/mL) P. mirabilis ([1]; Proteus mirabilis, 96-well plate, 37° C., 10 h): 25 µg/mL; MIC (μg/mL) M. catarrhalis ([2]; Moraxella catarrhalis, 96-well plate, 37° C., 10 h): 12.5 µg/mL; MIC (μg/mL) E. coli BL21 ([3]; 96-well plate, 37° C., 10 h): 12.5 µg/mL; MIC (μg/mL) P. aeruginosa ([4]; Pseudomonas aeruginosa, 96-well plate, 37° C., 10 h): 12.5 µg/mL; MIC (μg/mL) C. diversus ([5]; Citrobacter diversus, 96-well plate, 37° C., 10 h): 25 µg/mL; MIC (μg/mL) K. pneumonia ([6]; Klebsiella pneumonia, 96-well plate, 37° C., 10 h): 12.5 µg/mL; MIC (μg/mL) P. vulgaris ([7]; Proteus vulgaris, 96-well plate, 37° C., 10 h): 12.5 µg/mL; MIC (μg/mL) A. hydrophila ([8]; Aeromonas hydrophila, 96-well plate, 37° C., 10 h): 12.5 µg/mL; MIC (μg/mL) E. cloacae ([9]; Enterobacter cloacae, 96-well plate, 37° C., 10 h): 12.5 µg/mL; MIC (μg/mL) S. marcescens ([10]; Serratia marcescens, 96-well plate, 37° C., 10 h): 25 µg/mL
3 | PRT798 (FGQDCAQLCSCANNGTCSPIDGSCQCFPGWIGKDCS; listed as Homo sapiens) | 12.5 µg/mL | 12.5 µg/mL | 50 µg/mL | 25 µg/mL | 12.5 µg/mL | 12.5 µg/mL | 50 µg/mL | 50 µg/mL | 50 µg/mL | 12.5 µg/mL | 25 µg/mL |  |  |  |  |  |  |  |  |  | 
4 | PRT745 (RQHPCAQDNGGCSHICLVKGDGTTRCSCPMHLVLLQDELSCG; listed as Homo sapiens) | 50 µg/mL | 25 µg/mL | 12.5 µg/mL | 25 µg/mL | 50 µg/mL | 50 µg/mL | 12.5 µg/mL | 50 µg/mL | 12.5 µg/mL | 50 µg/mL | 25 µg/mL |  |  |  |  |  |  |  |  |  | 
5 | PRT1360 (NKPLCLNNCYNRGRCVENECVCDEGFTGEDCS; listed as Homo sapiens) | 12.5 µg/mL |  |  |  |  |  |  |  |  |  |  | 12.5 µg/mL | 50 µg/mL | 25 µg/mL | 50 µg/mL | 12.5 µg/mL | 25 µg/mL | 25 µg/mL | 50 µg/mL | 12.5 µg/mL | MIC against S. marcescens [10, 29]: 50 µg/mL
6 | PRT1421 (ATQSCNDLCEHFCVPNPDQPGSYSCMCETGYRLAADQHRCE; listed as Homo sapiens) | 12.5 µg/mL |  |  |  |  |  |  |  |  |  |  | 25 µg/mL | 12.5 µg/mL | 50 µg/mL | 12.5 µg/mL | 25 µg/mL | 50 µg/mL | 12.5 µg/mL | 50 µg/mL | 12.5 µg/mL | MIC against S. marcescens [10, 29]: 25 µg/mL

Source: patent publication US9833497B2, “Human originated EGF domain proteins and use of the same” (CHENGDU SOURCEBIO LIMITED-LIABILITY COMPANY, priority 2013, dated 2017)
